Values quoted from earlier work, collected in patent publication US9603803B2, “Process for preparing spray dried formulations of 4-[[6-amino-5-bromo-2-[(4-cyanophenyl)amino]-4-pyrimidinyl]oxy]-3,5-dimethylbenzonitrile” (JANSSEN SCIENCES IRELAND UC, priority 2006, dated 2017).

In the case of `Cc1cc(C#N)cc(C)c1Oc1nc(Nc2ccc(C#N)cc2)nc(N)c1Br` [TMC125, 4-[[6-amino-5-bromo-2-[(4-cyanophenyl)amino]-4-pyrimidinyl]oxy]-3,5-dimethylbenzonitrile], the “activity against many mutated variants” value (many mutated variants) is given as “pronounced activity”, the water-solubility is given as “poor” and the “activity against wild type HIV” value (wild type HIV) is given as “pronounced activity”.
